Assay [1] concerns the target T1, Estrogen receptor (Homo sapiens, UniProt P03372).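 Also: potency for inhibiting coactivator peptide recruitment to the receptor.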
T1 sequence (P03372 whole entry): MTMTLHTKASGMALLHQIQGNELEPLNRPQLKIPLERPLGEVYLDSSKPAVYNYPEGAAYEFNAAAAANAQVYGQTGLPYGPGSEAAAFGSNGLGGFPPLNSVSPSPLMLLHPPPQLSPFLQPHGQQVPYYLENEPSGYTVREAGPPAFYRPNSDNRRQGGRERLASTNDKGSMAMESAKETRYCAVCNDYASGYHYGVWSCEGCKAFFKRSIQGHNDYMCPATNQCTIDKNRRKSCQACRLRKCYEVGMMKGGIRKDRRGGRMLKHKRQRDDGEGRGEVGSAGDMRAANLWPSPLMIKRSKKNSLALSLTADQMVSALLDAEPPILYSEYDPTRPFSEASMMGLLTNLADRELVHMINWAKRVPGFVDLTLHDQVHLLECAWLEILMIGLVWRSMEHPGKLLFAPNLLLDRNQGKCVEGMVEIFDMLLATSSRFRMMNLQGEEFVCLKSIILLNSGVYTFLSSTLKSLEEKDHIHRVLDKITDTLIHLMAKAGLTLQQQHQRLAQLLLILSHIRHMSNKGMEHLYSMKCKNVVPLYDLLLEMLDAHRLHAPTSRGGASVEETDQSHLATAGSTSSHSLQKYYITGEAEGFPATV

Assay [2] concerns the target T2, E3 ubiquitin-protein ligase XIAP (Homo sapiens, UniProt P98170). Kind of assay: Counter Screen using XIAP-Bir3 for Chemical Antagonists of Bir1/2 domains of IAP-family anti-apoptotic proteins. [Related pubchem assays (depositor defined):AID1018, AID1449, AID1514, AID1638, AID1749, AID1750, AID488957, AID488963]. On the technique in general: The purpose of a counterscreen is to sort out artefacts and off-target activity.

For assay [3], the target named is T2, E3 ubiquitin-protein ligase XIAP. Kind of assay: small molecules displacing peptide from XIAP – biochemical, IAP family, fluorescence polarization (AID 1018). In kind it is functional. A general note: Polarisation of emitted light reports the rotation of a fluorescent probe.
Assay [4] deals with H9c2. Kind of assay: cells. To be noted: Rattus norvegicus, H9c2, Myocardium. The format is functional, cell-based.
Assay [5] addresses Cytochrome P450 3A4 (Homo sapiens, UniProt P08684). To be noted: Potency.
Assay [6] deals with P388/ADR. Kind of assay: cells. In kind it is functional. To be noted: Mus musculus.
Assay [7] relates to SN12K1. Kind of assay: cells. The format is functional. To be noted: Homo sapiens.
For assay [8], the system named is P388. Description: cells. In kind it is functional. To be noted: Mus musculus.
Assay [9] is described as follows: luciferase reporter signal suppression in cells – H4 neuroglioma cells, luminescence, dose response (AID 1990). The format is functional, cell-based. For orientation: A reporter such as luciferase makes a cellular process visible.
Assay [10] in a line: luciferase reporter signal reduction – luminescence, H4-C neuroglioblastoma cells, dose response (AID 2458).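 Also: H4 neuroglioblastoma cells stably carrying a luciferase reporter gene fusion.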 In kind it is functional, cell-based.
The subject of assay [11] is BJ. Description: BJ-TERT fibroblast viability loss – cell-based, RAS-independent, luminescence, dose response (AID 1933). To be noted: Homo sapiens. In kind it is functional.
Assay [12] can be described thus: cells. The format is functional, cell-based.
Assay [13] in a line: Luminescence Cell-Based Dose Response HTS to Identify Inhibitors of 5'UTR Stem-Loop Driven Prion Protein mRNA Translation in H4 Neuroglioblastoma Cells. [Related pubchem assays: 1827 (Project Summary), 1813 (Primary HTS)]. The format is functional.
Assay [14] in a line: alpha-synuclein stem-loop luciferase translation blockers – H4 neuroglioma cells, luminescence, confirmation (AID 1988). In kind it is functional, cell-based.
Assay [15] has as its system BJ. Description: cells. In kind it is functional, cell-based. To be noted: Homo sapiens.
In assay [16] the test system is BJ. Kind of assay: BJ-TERT-LT-ST fibroblast viability loss – cell-based, RAS-independent, luminescence, dose response (AID 1935).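 Also: BJ fibroblasts immortalized with TERT plus LT and ST oncogenes.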 To be noted: Homo sapiens. The format is functional.
Assay [17] is described as follows: DRD fibroblast viability loss – cell-based, non-viral oncogenic, luminescence, dose response (AID 1934). To be noted: Homo sapiens. In kind it is functional.
A short description of assay [18]: alpha-synuclein stem-loop translation blockers – luminescence, H4 neuroglioblastoma cells, dose confirmation, confirmation (AID 2454).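 Also: H4 neuroglioblastoma cells carrying an alpha-synuclein 5'UTR luciferase reporter; potency for inhibition of the luciferase signal.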 The format is functional, cell-based.
Assay [19] in a line: HEK-293T viability loss after treatment – luminescence, T-cell screen hits, cytotoxicity control for TCR NF-kB inhibitor project, dose response (AID 489026).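 Also: cells exposed to compound about 14 hours before the viability readout.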 The format is functional, cell-based.
A short description of assay [20]: Trypanosoma cruzi growth suppression in host cells – NIH3T3 host cells, beta-gal luminescence, confirmation (AID 2044).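 Also: intracellular parasites grown in NIH/3T3 mouse fibroblasts as host cells; luminescent beta-galactosidase reporter signal from transgenic T. cruzi replicating inside host cells; inhibitors lower the luminescence signal.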 The format is functional, cell-based.
Assay [21] can be described thus: microbe, parasite or virus in culture. The format is functional. To be noted: Mycobacterium tuberculosis.
Assay [22] in a line: NIH3T3 cell viability loss – ATP luminescence, mouse fibroblasts, counter-screen, dose response (AID 2010).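 Also: cells exposed to compound for about 90 hours before reading.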 In kind it is functional, cell-based.
The target of assay [23] is T3, High affinity choline transporter 1 (Homo sapiens, UniProt Q9GZV3).
T3 sequence (Q9GZV3 whole entry): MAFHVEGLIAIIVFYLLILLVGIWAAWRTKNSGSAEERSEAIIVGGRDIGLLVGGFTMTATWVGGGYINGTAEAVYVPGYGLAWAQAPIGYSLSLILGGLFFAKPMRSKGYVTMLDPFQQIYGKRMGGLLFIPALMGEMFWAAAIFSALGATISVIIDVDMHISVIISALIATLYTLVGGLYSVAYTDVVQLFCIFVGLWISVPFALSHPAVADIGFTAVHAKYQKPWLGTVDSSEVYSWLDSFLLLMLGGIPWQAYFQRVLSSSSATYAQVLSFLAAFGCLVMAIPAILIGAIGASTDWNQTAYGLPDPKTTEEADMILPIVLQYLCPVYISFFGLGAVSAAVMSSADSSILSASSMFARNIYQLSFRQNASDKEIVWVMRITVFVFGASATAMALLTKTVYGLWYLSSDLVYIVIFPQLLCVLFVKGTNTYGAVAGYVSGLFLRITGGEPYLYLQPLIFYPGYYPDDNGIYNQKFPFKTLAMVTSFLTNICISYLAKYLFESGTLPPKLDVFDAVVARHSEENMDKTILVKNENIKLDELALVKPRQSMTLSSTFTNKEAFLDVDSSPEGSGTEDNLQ
Kind of assay: human choline transporter blockers, potency – cell-based, 5-point CRC, membrane potential dye, dose response (AID 504840). In kind it is functional.

Assay [24] has as its target Glyceraldehyde-3-phosphate dehydrogenase (Homo sapiens, UniProt P04406).

Molecules are shown by their SMILES. Where a name gives a salt, the structure may show the parent alone. The source made the active and inactive calls.
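For AC50 in this document: confirmatory qHTS run detecting inhibitors and substrates of CYP3A4.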

T2 sequence (P98170 whole entry): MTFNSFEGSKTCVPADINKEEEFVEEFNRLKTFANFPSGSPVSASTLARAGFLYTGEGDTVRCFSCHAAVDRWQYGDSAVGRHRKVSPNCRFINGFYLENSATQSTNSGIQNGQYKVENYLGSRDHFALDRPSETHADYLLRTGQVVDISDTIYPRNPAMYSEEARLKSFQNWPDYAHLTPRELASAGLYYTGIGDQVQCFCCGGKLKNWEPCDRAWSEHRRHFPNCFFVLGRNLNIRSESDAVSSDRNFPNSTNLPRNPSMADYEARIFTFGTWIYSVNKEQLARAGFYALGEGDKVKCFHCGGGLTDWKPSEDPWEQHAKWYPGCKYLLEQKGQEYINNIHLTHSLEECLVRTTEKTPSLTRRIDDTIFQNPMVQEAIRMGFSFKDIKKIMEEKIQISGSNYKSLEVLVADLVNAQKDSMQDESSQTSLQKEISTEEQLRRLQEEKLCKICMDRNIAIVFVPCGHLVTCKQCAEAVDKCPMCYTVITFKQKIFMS
Chain of Cytochrome P450 3A4 (P08684 whole entry): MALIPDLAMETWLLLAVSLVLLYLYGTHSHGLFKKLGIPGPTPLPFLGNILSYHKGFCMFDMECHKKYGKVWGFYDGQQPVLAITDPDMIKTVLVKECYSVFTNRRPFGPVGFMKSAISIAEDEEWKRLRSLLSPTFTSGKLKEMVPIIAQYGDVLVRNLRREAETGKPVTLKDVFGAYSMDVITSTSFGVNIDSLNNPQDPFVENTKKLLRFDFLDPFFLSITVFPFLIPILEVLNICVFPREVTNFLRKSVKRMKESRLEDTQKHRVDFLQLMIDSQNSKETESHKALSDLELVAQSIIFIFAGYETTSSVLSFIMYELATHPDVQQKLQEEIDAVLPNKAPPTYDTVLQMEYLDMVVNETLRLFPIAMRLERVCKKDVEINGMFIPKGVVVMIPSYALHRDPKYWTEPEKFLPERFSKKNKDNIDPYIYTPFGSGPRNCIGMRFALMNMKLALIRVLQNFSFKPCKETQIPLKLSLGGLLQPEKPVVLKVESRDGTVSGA
Chain of Glyceraldehyde-3-phosphate dehydrogenase (P04406 whole entry): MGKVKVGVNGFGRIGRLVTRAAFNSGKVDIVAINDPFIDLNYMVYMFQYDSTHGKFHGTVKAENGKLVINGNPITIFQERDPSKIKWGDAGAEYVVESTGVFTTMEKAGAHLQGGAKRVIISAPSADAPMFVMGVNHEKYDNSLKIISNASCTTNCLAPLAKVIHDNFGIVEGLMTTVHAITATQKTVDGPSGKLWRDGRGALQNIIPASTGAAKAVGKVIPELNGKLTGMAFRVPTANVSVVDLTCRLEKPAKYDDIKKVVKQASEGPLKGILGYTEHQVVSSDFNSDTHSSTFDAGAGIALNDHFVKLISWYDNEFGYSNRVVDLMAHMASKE

The IC50 is the concentration that inhibits the measured activity by half. With `Cc1cc(-c2nn3c(-c4ccccc4)nnc3s2)c2ccccc2n1`, the IC50 in assay [1] is 21.6 µM (active); in assay [2] it was > 100 µM (inactive); in assay [3] it was > 100 µM (not active); in assay [4] it was > 79 µM (inactive).

A word on the AC50: it is the midpoint of the concentration-response curve, whichever way the signal moves. For `COC(=O)[C@H]1C[C@H]2CC[C@H](O)C[C@H]2N1CC1CC1`, in [5], the AC50 was 25.1 µM (inconclusive).

As for `O=C(Nc1ccccc1-c1nnn(CC(=O)N2CCCc3ccccc32)n1)c1ccc(Cl)cc1`, the figures for the IC50 in assay [2] and in assay [3] were > 100 µM (inactive) and > 100 µM (not active), respectively.

Consider `CC1CCCN(C(C(=O)Nc2ccc(C(C)C)cc2)c2ccc3c(c2)OCO3)C1` (configuration not stated), for which the IC50 was > 100 µM (inactive) in assay [2] and > 100 µM (not active) in assay [3].

Usually GI50 stands for the concentration giving 50% growth inhibition. Regarding `COc1cc(C2c3cc4c(cc3[C@@H](Nc3cccc(CO)c3)C3COC(=O)[C@H]23)OCO4)cc(OC)c1O` (some centres not stated), the GI50 in assay [6] is 0.124 µM (active); in assay [7], 0.0925 µM (active); in assay [8] it was < 0.01 µM (active).

As for `O=C(NC(Cc1ccc(Cl)cc1)C(=O)O)c1ccc(I)cc1` (configuration not stated), the GI50 in [6] is 54.8 µM (inactive); in assay [7], > 100 µM (inactive); in [8], 64.7 µM (inactive).

As a reminder, the EC50 is the concentration giving half of the maximal effect. As to `C=CCOC(=O)c1[nH]c2c(c1C)C(=O)CC(c1ccco1)C2` (configuration not stated), the EC50 in assay [9] was 0.257 µM (active); in assay [10] it was 0.598 µM (active); in assay [11], 0.377 µM (inconclusive); in assay [12] it was 1.29 µM (active); in assay [13] it was 0.19 µM (active); in assay [14], < 0.1 µM (active). Moreover, the EC50 in assay [15] was 29.1 µM (inconclusive); in [16], 0.346 µM (inconclusive); in assay [17] it was 0.374 µM (active); in [18], 0.822 µM (active). Besides, the IC50 in [19] is > 80 µM (inactive).

On to `c1ccc(CCN2CCN(c3ncnc4c3cnn4-c3ccccc3)CC2)cc1`, for which the figures for the EC50 in [20] and in [22] were 2.38 µM (active) and > 30 µM (not active), respectively. Moreover, the CC50 in assay [21] was > 40 µM (active). Besides, the IC50 in assay [23] was 30.2 µM (active).

Regarding `Cc1cccc(N2C(=O)C(Cl)=C(N3CCN(Cc4ccccc4)CC3)C2=O)c1`, in assay [24], the IC50 is > 50 µM (inconclusive).

As to `CCCCN1CCCCC1C(=O)Nc1c(C)cccc1C` (configuration not stated) [BUPIVACAINE HYDROCHLORIDE], in assay [5], the AC50 was 31.6 µM (inconclusive).
